Experimental data from US10844052B2, “LLS compounds for treatment of cancer” (THE REGENTS OF THE UNIVERSITY OF CALIFORNIA, priority 2016, dated 2020).

Tests used:
PC3 = assay: In vitro cell proliferation / killing assay on PC3 prostate cancer cells; type: cell-based
Method: (§1) Biotinylated LLS2 was synthesized in solution and loaded it onto a streptavidin-coated plate. The biotinylated LLS2 immobilized on the plate killed approximately 21% of SKOV3 ovarian cancer cells at 100 μM loading, 16% at 50 μM and 14% at 25 μM (FIG. 4). The killing effect of the LLS2 compound was also tested in solution. […] In addition, LLS2 can kill pancreatic cancer cell line XPA3, prostate cancer cell line PC3, colon cancer cell line HT29, breast cancer cell line MCF7 and lung cancer cell line A549 (FIG. 4).

XPA3 = assay: Cell killing by soluble LLS2, pancreatic cancer cell line XPA3; type: cell-based
Method: as §1

MCF7 = assay: Cell killing by soluble LLS2, breast cancer cell line MCF7; type: cell-based
Method: as §1

SKOV3 cells = assay: In vitro combination of LLS2 with paclitaxel on SKOV3 cells; type: cell-based
Source text: C.I.<0.9 indicates synergism, C.I.=0.9-1.10 indicates additive interaction, and C.I.>1.1 indicates antagonism.
The synergistic effects of LLS2 with current chemotherapeutic drugs including docetaxel, paclitaxel, 5-Fu, oxaliplatin, carboplatin, doxorubicin and gemcitabine were examined in vitro.

[1] = test system: prostate cancer PC3 cancer cells
A549 = assay: Cell killing by soluble LLS2, lung cancer cell line A549; type: cell-based
Method: as §1

SKOV3 = assay: Anti-cancer activity against ovarian cancer cells SKOV3 (cell killing in solution / in vitro cell proliferation); type: cell-based
Method: as §1

[2] = test system: Human umbilical vascular endothelial cells (HUVECs); assay: HUVEC tube-formation assay on Matrigel-coated plates; type: cell-based
Method: Human umbilical vascular endothelial cells (HUVECs) we used for tube-formation assays on Matrigel-coated plates as shown in FIG. 10. The expression level of secreted gal-1 in 6 different cancer cell lines was determined using ELISA assay.

N-Ras(Q61D) = N-Ras(Q61D) localization; type: cell-based
Source text: (§2) (b) Once activated by EGF, H-Ras will be partially trafficked to the plasma membrane leading to the activation of Erk pathway. […] (c) Quantification of membrane associated H-Ras (active form) by immunoblot analysis after treatment with buffer (−) or LLS2 (+), showing that LLS2 was able to lower the level of membrane-associated H-Ras. (d) LLS2 also miscolocalized the EGF-stimulated K-Ras(G12V) but not N-Ras(Q61D).
(§3) LLS2 treatment also miscolocalizes the EGF-stimulated K-Ras(G12V), whereas the localization of EGF-stimulated N-Ras(Q61D) is not changed (FIG. 9d). […] Without being bound to any particular theory, this implies that LLS2 induces cell death through suppression of the RAS-ERK pathway.

[3] = test system: phospho-MEK and phospho-ERK; assay: Expression level of phospho-MEK and phospho-ERK after LLS2; type: cell-based; details: treatment for 2 hours
Source text: as §2, §3

SKOV3 xenograft tumors = assay: SKOV3 xenograft in nude mice, LLS2 alone or with paclitaxel; type: in vivo
Source text: Briefly, 2.5×10^6 SKOV3 cells were subcutaneously injected to the right side of the dorsal flank of the female congenital athymic BALB/c nude mice. The tumors were allowed to grow to about 100 mm^3.
Then, mice were randomly divided into control and treatment groups (n=5). Mice were given a daily I.V. administration for 5 successive days.
SKOV3 ovarian cancer cells were subcutaneously injected on the dorsal flanks of mice.

galectin-1 = molecular target: T1, galectin-1 (Homo sapiens, UniProt P09382); assay: Pull-down with biotinylated LLS2, LC MS/MS and anti-galectin-1 immunoblot; type: binding; details: biotinylated LLS2, cell membrane protein preparation
T1 construct: endogenous in cells
T1 sequence (P09382 whole entry): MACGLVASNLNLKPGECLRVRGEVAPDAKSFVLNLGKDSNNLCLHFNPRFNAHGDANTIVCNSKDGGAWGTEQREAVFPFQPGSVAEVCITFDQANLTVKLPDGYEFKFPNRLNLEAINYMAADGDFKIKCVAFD
Method: LLS2 was biotinylated, incubated with a cell membrane protein preparation, and bound proteins were pulled down with immobilized streptavidin resin. The bound proteins were eluted and subjected to identification by LC MS/MS. The MS result identified galectin-1 as the putative target protein of LLS2 (FIG. 8a). The identity of galectin-1 as the target protein of LLS2 was confirmed by immunoblot analysis of proteins eluted from (i) blank streptavidin-beads, (ii) biotin-LLS2/streptavidin beads, and (iii) biotinylated unrelated small molecule/streptavidin beads, using anti-galectin-1 antibody as the western blot probe (FIG. 8b).

K-Ras(G12V) = K-Ras(G12V) localization and Ras activity assay; type: cell-based
Source text: as §2, §3

GFP-H-Ras(12V) = assay: H-Ras localization (real time confocal) and membrane-associated H-Ras immunoblot; type: cell-based
Source text: as §2, §3

HT29 = assay: Cell killing by soluble LLS2, colon cancer cell line HT29; type: cell-based
Method: as §1

[4] = Combination of LLS30 with Enzalutamide; type: cell-based
[5] = test system: PC3 prostate cancer cells; assay: Cell viability of prostate cancer PC3 cells after 72 hours treatment; type: cell-based; details: Homo sapiens
Method: Effects of compounds LLS42-LLS80 on the viability of PC3 prostate cancer cells after 72 hours of treatment are shown in Table 2 below: […]

[6] = test system: sNF96.2 malignant peripheral nerve sheath tumor (MPNST) cells; assay: Cytotoxicity against sNF96.2 MPNST cells; type: cell-based
Method: (§4) The biochemical and biological effects of LLS30 on sNF96.2 and sNF2.2 malignant peripheral nerve sheath tumor (MPNST) cells were evaluated.

[7] = test system: 22RV1 prostate cancer cells; assay: Cell viability of prostate cancer 22RV1 cells after 72 hours treatment; type: cell-based; details: Homo sapiens
[8] = test system: sNF2.2 malignant peripheral nerve sheath tumor (MPNST) cells; assay: Cytotoxicity and PTX combination on sNF2.2 MPNST cells; type: cell-based
Method: as §4

ERK phosphorylation = assay: Phosphorylation of ERK / MEK/ERK pathway in MPNST cells; type: cell-based
Method: (b) LLS30 exerts death on MPNST cells.
as §4

PC3 tumor = assay: In vivo efficacy study of LLS30 on PC3 tumor
[9] = Homo sapiens, SK-OV-3, ovarian cancer cells SKOV3

CC(=O)OCCN(CCOC(C)=O)c1ccc(-c2nc3cc(C(CC(N)=O)NC(=O)[C@@H](N)Cc4ccc(Cl)c(Cl)c4)ccc3n2Cc2ccc(F)c(F)c2)cc1 (stereo partly drawn) [LLS2, ((4-(5-(3-amino-1-((S)-2-amino-3-(3,4-dichlorophenyl)propanamido)-3-oxopropyl)-1-(3,4-difluorobenzyl)-1H-benzo[d]imidazol-2-yl)phenyl)azanediyl)bis(ethane-2,1-diyl) Diacetate]
cell killing (PC3; prostate cancer cell line PC3): can kill
cell killing (XPA3): can kill
cell killing (MCF7): can kill
anti-proliferation effect of combined treatment with paclitaxel (SKOV3 cells; SKOV3, LLS2 + paclitaxel): much stronger anti-proliferation effects
apoptosis after combined LLS2/paclitaxel treatment (SKOV3 cells; SKOV3 cells, 24 hours): Increased apoptosis
anti-proliferation effect of combined treatment with paclitaxel ([1]; PC3, LLS2 + paclitaxel): much stronger anti-proliferation effects
cell killing (A549): can kill
IC50 (SKOV3; [9]): 15.7 µM
IC50 (SKOV3; ovarian cancer cells SKOV3): 18.7 µM
angiogenic effect of added gal-1 [2]: inhibited
tube-formation activity of PC3 conditioned medium ([2]; 10 μM): neutralized
localization of EGF-stimulated N-Ras(Q61D) (N-Ras(Q61D)): not changed
expression level of phospho-MEK and phospho-ERK [3]: down-regulated
tolerability (body weight) (SKOV3 xenograft tumors; LLS2/paclitaxel combination regimen, nude mice): tolerable and without significant side effects
tumor size and weight (SKOV3 xenograft tumors; LLS2 alone, daily I.V. for 5 successive days, SKOV3 xenograft): smaller tumor size
tumor growth (SKOV3 xenograft tumors; combination LLS2/paclitaxel compared to either alone, SKOV3 xenograft): significant suppression of tumor growth
target protein identified by pull-down / immunoblot (galectin-1): target protein of LLS2 was indeed galectin-1
localization of EGF-stimulated K-Ras(G12V) (K-Ras(G12V)): miscolocalizes
EGF-stimulated levels of K-Ras-GTP (K-Ras(G12V); Ras activity assays): decreases
membrane-localized H-Ras (GFP-H-Ras(12V); 25 μM, 15 mins treatment, EGF-activated): loss of membrane-localized H-Ras
localization of EGF-stimulated GFP-H-Ras(12V) (GFP-H-Ras(12V); 25 μM, 30 min): mis-localizes to intracellular compartments
membrane-associated H-Ras (GFP-H-Ras(12V); LLS2-treated vs non-treated MDCK cells): significant down-expression of H-Ras
cell killing (HT29): can kill

NC(=O)CC(NCc1ccc(Cl)c(Cl)c1)c1ccc2c(c1)nc(-c1ccc(N(CCO)CCO)cc1)n2Cc1ccc(Cl)c(Cl)c1 (centres unmarked) [LLS30, 3-(2-(4-(bis(2-hydroxyethyl)amino)phenyl)-1-(3,4-dichlorobenzyl)-1H-benzo[d]imidazol-5-yl)-3-((3,4-dichlorobenzyl)amino)propanamide]
anti-cancer effect in combination with Enzalutamide [4]: synergistic anti-cancer effect
IC50 (PC3; Homo sapiens, PC-3): 9.2 µM
viability at 2.5 µM ([5]; PC-3, 2.5 μM): 100%
viability at 5 µM ([5]; PC-3, 5 μM): 95%
viability at 10 µM ([5]; PC-3, 10 μM): 73%
viability at 20 µM ([5]; PC-3, 20 μM): 10%
IC50 [6]: 16 µM
IC50 (SKOV3; [9]): 10.2 µM
potency relative to LLS2 (SKOV3; in vitro cell proliferation assays): about 2 fold
viability at 2.5 µM ([7]; 2.5 μM): 47%
viability at 5 µM ([7]; 5 μM): 3%
viability at 10 µM ([7]; 10 μM): 0%
IC50 [8]: 26 µM
C.I. (combination index) with PTX ([8]; LLS30 with PTX): 0.1
MEK/ERK pathway (ERK phosphorylation; 2 μM, MPNST cells (FIG. 12 legend)): suppresses
Phosphorylation of ERK (ERK phosphorylation; 24 hrs treatment, 25 μM, MPNST cells): totally suppressed
growth of PC3 tumor (PC3 tumor; 10 mg/kg, i.v. q3d×4): significantly suppressed
Ki-67 in tumor (PC3 tumor; LLS30-treated tumor): down-regulated
cleaved caspase-3 in tumor (PC3 tumor; LLS30-treated tumor): more cleaved caspase-3 positive cells
PC3 tumor response, combination with PTX (PC3 tumor; LLS30 with PTX, i.v. q3d×4): tumor regression
CBC, platelets, liver function tests and renal panel (PC3 tumor; after 4 courses of treatment): remained within normal limits
histological analysis of the resected tumor (PC3 tumor; necrotic cells): many necrotic cells were present

CC(=O)O[C@H]1C(=O)[C@@]2(C)[C@H]([C@H](OC(=O)c3ccccc3)[C@]3(O)C[C@H](OC(=O)[C@H](O)[C@@H](NC(=O)c4ccccc4)c4ccccc4)C(C)=C1C3(C)C)[C@]1(OC(C)=O)CO[C@@H]1C[C@@H]2O [Paclitaxel, reference compound]
cytotoxicity, single agent (SKOV3 cells; SKOV3 cells, at particular concentrations): little effect
cytotoxicity, single agent [1]: moderate cytotoxicity

NC(=O)CC(NC(=O)[C@@H](N)Cc1ccc(F)c(F)c1)c1ccc2c(c1)nc(-c1ccc(N(CCO)CCO)cc1)n2Cc1ccc(F)c(F)c1 (stereo partly drawn) [LLS18, (2S)-2-amino-N-(3-amino-1-(2-(4-(bis(2-hydroxyethyl)amino)phenyl)-1-(3,4-difluorobenzyl)-1H-benzo[d]imidazol-5-yl)-3-oxopropyl)-3-(3,4-difluorophenyl)propanamide]
IC50 (SKOV3; [9]): > 50 µM

CC(=O)OCCN(CCOC(C)=O)c1ccc(-c2nc3cc(C(CC(N)=O)NC(=O)[C@@H](N)Cc4ccc(F)c(F)c4)ccc3n2Cc2ccc(OC(F)(F)F)cc2)cc1 (stereo partly drawn) [LLS9, ((4-(5-(3-amino-1-((S)-2-amino-3-(3,4-difluorophenyl)propanamido)-3-oxopropyl)-1-(4-(trifluoromethoxy)benzyl)-1H-benzo[d]imidazol-2-yl)phenyl)azanediyl)bis(ethane-2,1-diyl) Diacetate]
IC50 (SKOV3; [9]): 17.6 µM

CC(=O)OCCN(CCOC(C)=O)c1ccc(-c2nc3cc(C(CC(N)=O)NC(=O)[C@@H](N)Cc4ccc(F)c(F)c4)ccc3n2Cc2ccc(F)c(F)c2)cc1 (stereo partly drawn) [LLS11, ((4-(5-(3-amino-1-((S)-2-amino-3-(3,4-difluorophenyl)propanamido)-3-oxopropyl)-1-(3,4-difluorobenzyl)-1H-benzo[d]imidazol-2-yl)phenyl)azanediyl)bis(ethane-2,1-diyl) Diacetate]
IC50 (SKOV3; [9]): > 50 µM

CC(=O)OCCN(CCOC(C)=O)c1ccc(-c2nc3cc(C(N)CC(N)=O)ccc3n2Cc2ccc(C(F)(F)F)c(F)c2)cc1 (centres unmarked) [LLS22, ((4-(5-(1,3-diamino-3-oxopropyl)-1-(3-fluoro-4-(trifluoromethyl)benzyl)-1H-benzo[d]imidazol-2-yl)phenyl)azanediyl)bis(ethane-2,1-diyl) Diacetate]
IC50 (SKOV3; [9]): > 50 µM

CC(=O)OCCN(CCOC(C)=O)c1ccc(-c2nc3cc(C(CC(N)=O)NCc4ccc(Cl)c(Cl)c4)ccc3n2Cc2ccc(F)c(F)c2)cc1 (centres unmarked) [LLS17, ((4-(5-(3-amino-1-((3,4-dichlorobenzyl)amino)-3-oxopropyl)-1-(3,4-difluorobenzyl)-1H-benzo[d]imidazol-2-yl)phenyl)azanediyl)bis(ethane-2,1-diyl) Diacetate]
IC50 (SKOV3; [9]): 10.6 µM

NC(=O)CC(NCc1ccc(Cl)c(Cl)c1)c1ccc2c(c1)nc(-c1ccc(N(CCO)CCO)cc1)n2Cc1ccc(F)c(Cl)c1 (centres unmarked) [LLS31, 3-(2-(4-(bis(2-hydroxyethyl)amino)phenyl)-1-(3-chloro-4-fluorobenzyl)-1H-benzo[d]imidazol-5-yl)-3-((3,4-dichlorobenzyl)amino)propanamide]
IC50 (SKOV3; [9]): 16.4 µM
